Patent publication US20230406831A1, “COMPOUNDS AND METHODS OF INHIBITING BACTERIAL CHAPERONIN SYSTEMS” (THE TRUSTEES OF INDIANA UNIVERSITY, priority 2020, published 2023)
Where two headings read alike, the source gives them in different places.

Columns and labels:
[1] = target: T1, HSP60/10 (Homo sapiens, UniProt P10809); assay: HSP60/10-mediated dMDH refolding assay; assay type: biochemical; details: 37° C., 1 mM ATP, read-out: Biochemical Assay IC50 HSP60/10-dMDH Refolding
T1 construct: octa-Histidine (His8) tag, TEV-cleavable (N, cleaved yes); made in house; host or cells: HSP60 in Rosetta 2 (DE3) E. coli; HSP10 in Rosetta 2 (DE3) pLysS
T1 sequence (P10809 27-573): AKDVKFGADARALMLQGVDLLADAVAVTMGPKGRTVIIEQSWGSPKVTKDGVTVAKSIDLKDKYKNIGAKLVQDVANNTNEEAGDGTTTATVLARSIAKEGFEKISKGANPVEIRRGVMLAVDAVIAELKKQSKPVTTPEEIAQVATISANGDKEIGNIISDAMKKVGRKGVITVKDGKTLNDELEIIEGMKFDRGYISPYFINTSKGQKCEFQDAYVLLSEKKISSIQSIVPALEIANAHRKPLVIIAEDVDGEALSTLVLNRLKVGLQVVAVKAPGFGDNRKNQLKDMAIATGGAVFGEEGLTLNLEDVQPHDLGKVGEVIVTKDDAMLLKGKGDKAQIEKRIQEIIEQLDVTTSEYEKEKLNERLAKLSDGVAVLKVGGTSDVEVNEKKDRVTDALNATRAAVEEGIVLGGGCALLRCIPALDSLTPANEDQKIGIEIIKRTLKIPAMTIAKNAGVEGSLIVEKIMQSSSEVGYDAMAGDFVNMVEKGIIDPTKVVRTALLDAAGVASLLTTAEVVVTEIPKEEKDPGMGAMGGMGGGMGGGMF
Procedure, shortened: (§1)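 Pre-formed chaperonin–denatured pig heart MDH complexes (50 nM GroEL or HSP60, 60 nM GroES or HSP10, 12 nM dMDH) refolded with 1 mM ATP and compound (100 μM–46 nM) at 37 °C, ~20-40 min for GroEL/ES or ~40-60 min for HSP60/10. After EDTA quench, MDH activity was read as NADH loss at A340. IC50 came from variable-slope regression.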

[2] = HEK 293 kidney cell viability / cytotoxicity assay (Alamar Blue); assay type: cell-based; details: human, 48 h incubation, Alamar Blue, read-out: HEK 293 Kidney Cell Viability CC50
[3] = target: T2, GroEL/ES (Escherichia coli, UniProt P0A6F5); assay: GroEL/ES-mediated dMDH refolding assay; assay type: biochemical, E. coli
T2 construct: made in house; host or cells: GroEL in E. coli DH5a; GroES in E. coli BL21 (DE3)
T2 sequence (P0A6F5 2-548): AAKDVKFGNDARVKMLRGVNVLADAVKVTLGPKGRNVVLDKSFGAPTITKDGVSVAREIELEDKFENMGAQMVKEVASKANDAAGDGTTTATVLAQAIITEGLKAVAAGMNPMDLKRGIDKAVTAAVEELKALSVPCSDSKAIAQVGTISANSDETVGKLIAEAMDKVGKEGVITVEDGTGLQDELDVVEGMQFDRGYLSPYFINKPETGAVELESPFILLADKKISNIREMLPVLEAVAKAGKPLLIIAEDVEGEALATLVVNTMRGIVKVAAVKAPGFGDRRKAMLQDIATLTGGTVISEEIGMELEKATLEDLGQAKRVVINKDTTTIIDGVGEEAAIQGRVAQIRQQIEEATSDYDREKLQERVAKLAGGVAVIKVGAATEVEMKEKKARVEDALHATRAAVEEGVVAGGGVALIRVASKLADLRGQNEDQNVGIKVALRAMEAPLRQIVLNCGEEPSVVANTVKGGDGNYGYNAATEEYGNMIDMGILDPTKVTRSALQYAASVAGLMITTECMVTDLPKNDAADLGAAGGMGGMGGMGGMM
Procedure, shortened: as §1

| Structure (SMILES) | IC50 ([1]; Table 3) [µM] | CC50 at 48 h ([2]; HEK 293 kidney cells, Table 3) [µM] | IC50 [3] [µM] | IC50 ([1]; Table 2) [µM] | other results |
| --- | --- | --- | --- | --- | --- |
| COc1ccc(Cl)cc1C(=O)Nc1ccc(Oc2ccc(Cl)cc2)c(Cl)c1 [Compound 86, 5-chloro-N-(3-chloro-4-(4-chlorophenoxy)phenyl)-2-methoxybenzamide] | > 100 | > 100 | > 100 | – | – |
| COc1ccc(NC(=O)c2cc(Cl)ccc2O)cc1 [Compound 113, 5-chloro-2-hydroxy-N-(4-methoxyphenyl)benzamide] | > 100 | 19 | > 100 | – | – |
| Cc1cc(C(C#N)c2ccc(Cl)cc2)c(Cl)cc1NC(=O)c1ccc(O)cc1 (stereo not drawn) [Compound 66, N-(5-chloro-4-((4-chlorophenyl)(cyano)methyl)-2-methylphenyl)-4-hydroxybenzamide] | – | – | 47 | 35 | CC50 at 48 h ([2]; HEK 293 kidney cells, Table 2): 65 µM |
| COc1cccc(C(=O)Nc2cc(Cl)c(C(C#N)c3ccc(Cl)cc3)cc2C)c1 (stereo not drawn) [Compound 62, N-(5-chloro-4-((4-chlorophenyl)(cyano)methyl)-2-methylphenyl)-3-methoxybenzamide] | – | – | 67 | > 100 | CC50 at 48 h ([2]; HEK 293 kidney cells, Table 2): 50 µM |
| COc1ccc(Cl)cc1C(=O)Nc1ccc(CCc2ccccc2)cc1 [Compound 100, 5-chloro-2-methoxy-N-(4-phenethylphenyl)benzamide] | > 100 | > 100 | > 100 | – | – |
| COC(=O)c1ccc(NC(=O)c2cc(Cl)ccc2O)cc1 [Compound 107, methyl 4-(5-chloro-2-hydroxybenzamido)benzoate] | > 100 | 11 | 83 | – | – |
| O=C(Nc1ccccc1)c1cc(Cl)ccc1O [Compound 117, 5-chloro-2-hydroxy-N-phenylbenzamide] | > 100 | 13 | > 100 | – | – |
| Cc1cc(C(C#N)c2ccc(Cl)cc2)c(Cl)cc1NC(=O)c1ccccc1N (stereo not drawn) [Compound 70, 2-amino-N-(5-chloro-4-((4-chlorophenyl)(cyano)methyl)-2-methylphenyl)benzamide] | – | – | 44 | > 100 | CC50 at 48 h ([2]; HEK 293 kidney cells, Table 2): 32 µM |
| Cc1cc(C(C#N)c2ccc(Cl)cc2)c(Cl)cc1NC(=O)c1ccccc1Cl (stereo not drawn) [Compound 76, 2-chloro-N-(5-chloro-4-((4-chlorophenyl)(cyano)methyl)-2-methylphenyl)benzamide] | – | – | 54 | > 100 | CC50 at 48 h ([2]; Table 2): > 100 µM |
| N#CC(c1ccccc1)c1ccc(NC(=O)c2cc(Cl)ccc2O)cc1 (stereo not drawn) [Compound 85, 5-chloro-N-(4-(cyano(phenyl)methyl)phenyl)-2-hydroxybenzamide] | 75 | 29 | 56 | – | – |
| O=C(Nc1ccc(Cc2ccccc2)cc1)c1cc(Cl)ccc1O [Compound 99, N-(4-benzylphenyl)-5-chloro-2-hydroxybenzamide] | > 100 | – | 77 | – | CC50 at 48 h ([2]; Table 3): 19 µM |
| O=C(Nc1ncc([N+](=O)[O-])s1)c1ccccc1O [Tizoxanide, reference compound] | – | – | > 100 | – | IC50 ([1]; Table 1): > 100 µM; CC50 at 48 h ([2]; HEK 293 kidney cells, Table 1): 31 µM |
| COc1ccc(Cl)cc1C(=O)Nc1ccc(CC#N)cc1 [Compound 110, 5-chloro-N-(4-(cyanomethyl)phenyl)-2-methoxybenzamide] | > 100 | > 100 | 54 | – | – |
| COC(=O)c1ccc(NC(=O)c2cc(Cl)ccc2OC)cc1 [Compound 106, methyl 4-(5-chloro-2-methoxybenzamido)benzoate] | > 100 | 24 | 46 | – | – |
| O=C(Nc1ccc(Sc2nc3ccccc3s2)c(Cl)c1)c1cc(Cl)ccc1O [Compound 95, N-(4-(benzo[d]thiazol-2-ylthio)-3-chlorophenyl)-5-chloro-2-hydroxybenzamide] | 39 | 83 | 21 | – | – |
| Cc1cc(C(C#N)c2ccc(Cl)cc2)c(Cl)cc1NC(=O)c1cccc(F)c1 (stereo not drawn) [Compound 80, N-(5-chloro-4-((4-chlorophenyl)(cyano)methyl)-2-methylphenyl)-3-fluorobenzamide] | – | – | 78 | > 100 | CC50 at 48 h ([2]; HEK 293 kidney cells, Table 2): 70 µM |
| COc1ccc(C)cc1C(=O)Nc1cc(Cl)c(C(C#N)c2ccc(Cl)cc2)cc1C (stereo not drawn) [Compound 59, N-(5-chloro-4-((4-chlorophenyl)(cyano)methyl)-2-methylphenyl)-2-methoxy-5-methylbenzamide] | – | – | 86 | > 100 | CC50 at 48 h ([2]; Table 2): 32 µM |
| O=C(Nc1ccc(CCc2ccccc2)cc1)c1cc(Cl)ccc1O [Compound 101] | 81 | 4.3 | 54 | – | – |
| Cc1cc(C(C#N)c2ccc(Cl)cc2)c(Cl)cc1NC(=O)c1ccc(F)cc1 (stereo not drawn) [Compound 81, N-(5-chloro-4-((4-chlorophenyl)(cyano)methyl)-2-methylphenyl)-4-fluorobenzamide] | – | – | 77 | > 100 | CC50 at 48 h ([2]; Table 2): 78 µM |
| Cc1cc(C(C#N)c2ccc(Cl)cc2)c(Cl)cc1NC(=O)c1cccc(Br)c1 (stereo not drawn) [Compound 74, 3-bromo-N-(5-chloro-4-((4-chlorophenyl)(cyano)methyl)-2-methylphenyl)benzamide] | – | – | 50 | > 100 | CC50 at 48 h ([2]; HEK 293 kidney cells, Table 2): > 100 µM |
| COc1ccc(Cl)cc1C(=O)Nc1ccc(O)cc1 [Compound 114, 5-chloro-N-(4-hydroxyphenyl)-2-methoxybenzamide] | > 100 | > 100 | > 100 | – | – |
| Cc1cc(C(C#N)c2ccc(Cl)cc2)c(Cl)cc1NC(=O)c1ccc(Br)cc1 (stereo not drawn) [Compound 75, 4-bromo-N-(5-chloro-4-((4-chlorophenyl)(cyano)methyl)-2-methylphenyl)benzamide] | – | – | 58 | > 100 | CC50 at 48 h ([2]; HEK 293 kidney cells, Table 2): 33 µM |
| COc1ccc(Cl)cc1C(=O)Nc1ccc(C(=O)O)cc1 [Compound 108, 4-(5-chloro-2-methoxybenzamido)benzoic acid] | > 100 | > 100 | > 100 | – | – |
| COc1ccc(Cl)cc1C(=O)Nc1cc(Cl)c(C(C#N)c2ccc(Cl)cc2)cc1C (stereo not drawn) [Compound 57, 5-chloro-N-(5-chloro-4-((4-chlorophenyl)(cyano)methyl)-2-methylphenyl)-2-methoxybenzamide] | > 100 | – | 59 | > 100 | CC50 at 48 h ([2]; Table 2): 28 µM |
| O=C(Nc1ccc([N+](=O)[O-])cc1Cl)c1cc(Cl)ccc1O [Niclosamide, reference compound] | > 100 | – | > 100 | – | IC50 ([1]; Table 1): > 100 µM; CC50 at 48 h ([2]; HEK 293 kidney cells, Table 1): 1.7 µM; IC50 ([3]; read-out: Biochemical Assay IC50 GroEL/ES-dMDH Refolding, Table 3, 37° C., 1 mM ATP): > 100 µM |
| Cc1ccc(O)c(C(=O)Nc2cc(Cl)c(C(C#N)c3ccc(Cl)cc3)cc2C)c1 (stereo not drawn) [Compound 60, N-(5-chloro-4-((4-chlorophenyl)(cyano)methyl)-2-methylphenyl)-2-hydroxy-5-methylbenzamide] | – | – | 41 | 85 | CC50 at 48 h ([2]; Table 2): 40 µM |
| O=C(Nc1ccc(Oc2ccccc2)cc1)c1cc(Cl)ccc1O [Compound 93, 5-chloro-2-hydroxy-N-(4-phenoxyphenyl)benzamide] | > 100 | 20 | 68 | – | – |
| Cc1cc(C(C#N)c2ccc(Cl)cc2)c(Cl)cc1NC(=O)c1cc(Cl)ccc1O (stereo not drawn) [Compound 58, 5-chloro-N-(5-chloro-4-((4-chlorophenyl)(cyano)methyl)-2-methylphenyl)-2-hydroxybenzamide] | – | – | 24 | 40 | CC50 at 48 h ([2]; Table 2): 11 µM |
